Here are results for three compounds from paper PMC8460535, “Novel serotonin 5-HT2A receptor antagonists derived from 4-phenylcyclohexane-5-spiro-and 5-methyl-5-phenyl-hydantoin, for use as potential antiplatelet agents” (Pharmacological Reports, 2021).

The test system of assay [1] is whole rat blood aggregation induced by collagen. Nature of the assay: In vitro whole rat blood aggregation induced by collagen (Multiplate). It is filed as cell-based. To be noted: collagen 1.6 μg/ml, na = not active. The procedure: (§1) In vitro aggregation assays were performed using freshly drawn whole rat blood with a Multiplate platelet function analyzer (Roche Diagnostic), the five-channel aggregometer based on measurements of electric impedance. Blood was collected from carotid arteries with a hirudin blood tube (Roche Diagnostic). 300 μl of hirudin anticoagulated blood was mixed with 300 μl prewarmed isotonic saline solution containing studied compound or vehicle (deionized water or DMSO 0.1%) and preincubated for 3 min at 37 °C with continuous stirring. Aggregation was induced by adding collagen (Hyphen-Biomed, France) (final concentration 1.6 µg/ml), 5-HT (30 µM) and sub-threshold concentration of collagen (0.8 µg/ml), 5-HT (6 µM) and sub-threshold concentration of ADP (ADP test, Roche Diagnostic), (1.6 µM). The aggregation process was recorded for 6 min. Ketanserin (ketanserin ( +) tartrate salt, Sigma-Aldrich, Germany), sarpogrelate (sarpogrelate hydrochloride, Sigma-Aldrich, Germany), and aspirin (Tocris, UK) were used as reference compounds. The Multiplate software analyzed the area under the curve (AUC) of the clotting process of each measurement and calculated the mean values. Each concentration of studied compounds was tested at least three times. The exact sample size (n value) is presented on Figs. 2–4. Concentration-inhibition curves were constructed and analyzed by non-linear curve fitting using GraphPad Prism 6.0 (GraphPad Software Inc., San Diego, CA, USA).

The subject of assay [2] is whole rat blood aggregation induced by 5-HT and ADP. More on the design: method as in PMID 29111111. The settings on record: 5-HT 6 μM and ADP 1.6 μM, already published, read-out: c (5-HT + ADP) IC50; cited from earlier work.
The target of assay [3] is T1, human 5-HT2A receptor (Homo sapiens, UniProt P28223).
T1 construct: purchased PerkinElmer; host or cells: CHO-K1 cells, stably transfected
T1 sequence (P28223 whole entry): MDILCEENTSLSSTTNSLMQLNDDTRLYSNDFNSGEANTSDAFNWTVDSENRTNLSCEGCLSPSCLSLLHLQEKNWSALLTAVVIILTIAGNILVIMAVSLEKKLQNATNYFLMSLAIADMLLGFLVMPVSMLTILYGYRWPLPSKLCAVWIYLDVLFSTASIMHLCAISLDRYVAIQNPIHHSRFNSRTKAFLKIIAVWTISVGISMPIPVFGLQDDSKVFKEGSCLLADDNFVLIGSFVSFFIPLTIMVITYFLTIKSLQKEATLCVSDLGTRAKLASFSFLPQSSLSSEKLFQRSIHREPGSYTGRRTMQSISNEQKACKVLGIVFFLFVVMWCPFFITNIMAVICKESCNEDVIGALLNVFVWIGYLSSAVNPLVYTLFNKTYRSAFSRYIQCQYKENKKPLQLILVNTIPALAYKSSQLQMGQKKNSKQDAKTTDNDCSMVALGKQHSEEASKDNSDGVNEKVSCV
Details: method as in PMID 29111111. The settings on record: cells expressing human 5-HT2A receptors; already published; cited from earlier work.

In assay [4] the target is T2, 5-HT2A receptors in rat aorta (Rattus norvegicus, UniProt P14842).
T2 construct: Isolated rat aorta was used to determine the antagonistic activity of studied compounds for 5HT2A-receptors; from tissue; host or cells: aortic rings of male Wistar rats, denuded of the endothelium
T2 sequence (P14842 whole entry): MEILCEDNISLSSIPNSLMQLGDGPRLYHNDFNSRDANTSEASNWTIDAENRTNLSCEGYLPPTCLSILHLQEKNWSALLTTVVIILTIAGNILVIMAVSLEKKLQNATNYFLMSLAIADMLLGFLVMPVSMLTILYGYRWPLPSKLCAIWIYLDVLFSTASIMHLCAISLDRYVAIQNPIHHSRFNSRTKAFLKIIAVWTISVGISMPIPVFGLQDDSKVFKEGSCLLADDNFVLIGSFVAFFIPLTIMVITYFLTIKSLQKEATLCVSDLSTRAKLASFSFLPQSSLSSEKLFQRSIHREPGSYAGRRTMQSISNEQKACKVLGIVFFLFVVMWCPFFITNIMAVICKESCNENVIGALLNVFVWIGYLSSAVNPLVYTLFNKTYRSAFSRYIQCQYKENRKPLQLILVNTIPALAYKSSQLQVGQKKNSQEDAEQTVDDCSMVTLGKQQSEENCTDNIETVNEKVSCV
To be noted: already published; cited from earlier work.

Assay [5] deals with whole rat blood aggregation induced by 5-HT and ADP. Nature of the assay: In vitro whole rat blood aggregation induced by 5-HT and sub-threshold ADP. It is filed as cell-based. To be noted: 5-HT 6 μM and ADP 1.6 μM, na = not active, read-out: c (5-HT + ADP) IC50. The protocol: as §1
The target in a further assay is dopamine D2 receptor. More on the design: method as in Czopek et al., Acta Pol. Pharm. 73 (2016) 1545–1554. To be noted: ref Czopek et al., Acta Pol. Pharm. 73 (2016) 1545–1554; read-out: Ki ± SEM [nM] D2; cited from earlier work.
Assay [6] deals with T1, human 5-HT2A receptor. The experiment in a line: 5-HT2A receptor radioligand binding assay ([3H]-ketanserin, CHO-K1 membranes). The settings on record: radioligand binding, compound 13 vs compound 3. The procedure: Stock solutions of tested compounds (10 mM) were prepared in DMSO. […] Each compound was tested in eight concentrations from 10^–5 to 10^–12 M (final concentration).
Radioligand binding was performed using membranes from CHO-K1 cells stably transfected with the human 5-HT2A receptor (PerkinElmer). All assays were carried out in duplicates. Data were fitted to a one-site curve-fitting equation with Prism 6 (GraphPad Software) and Ki values were estimated from the Cheng − Prusoff equation. The full description of this assay is in Supplementary material.
Mianserin (10 μM) was used to define nonspecific binding. […] The reaction was terminated by rapid filtration through GF/B filter mate presoaked with 0.5% polyethyleneimine for 30 minutes. Ten rapid washes with 200 µl 50 mM Tris buffer (4°C, pH 7.4) were performed using automated harvester system Harvester-96 MACH III FM (Tomtec). […] Radioactivity was counted in MicroBeta2 scintillation counter (PerkinElmer).

In assay [7] the target is serotonin 5-HT1A receptor. More on the design: method as in Czopek et al., Acta Pol. Pharm. 73 (2016) 1545–1554. To be noted: ref Czopek et al., Acta Pol. Pharm. 73 (2016) 1545–1554; read-out: Ki ± SEM [nM] 5-HT1A; cited from earlier work.
Assay [8] has as its system whole rat blood aggregation induced by 5-HT and collagen. The experiment in a line: In vitro whole rat blood aggregation induced by 5-HT and sub-threshold collagen. The assay is classed as cell-based. The settings on record: 5-HT 30 μM and collagen 0.8 μg/ml, read-out: b (5-HT + collagen) IC50. The protocol:
as §1

A further assay concerns the target 5-HT2A receptor. The settings on record: cited from earlier work.

Where two headings read alike, the source gives them in different places. Marks after values point to notes of the source that are not given here.

The term IC50 denotes the point on the concentration scale where inhibition reaches its midpoint. Regarding `COc1cccc(CCc2ccccc2OCC(CN(C)C)OC(=O)CCC(=O)O)c1` (stereo not shown) [Sarpogrelate], the figures for the IC50 in assay [1] and in assay [2] were 66.8 ± 12.9 µM and 22.7 ± 2.1 µM, respectively. For the same compound, at human 5-HT2A receptor [3], the “pKB ± SEM b” value is recorded as 7.296 ± 0.04^b. In addition, the “pKB ± SEM a” value in assay [4] is 8.220 ± 0.08^b.
As usually defined, the Ki is a dissociation constant, usually derived from enzyme kinetics or from competition with a known ligand. In the case of `O=C1NC2(CCC(c3ccccc3)CC2)C(=O)N1CCCN1CCN(c2ccccc2)CC1` (stereo not shown) [Compound 13, 8-phenyl-3-(3-(4-phenylpiperazin-1-yl)propyl)-1,3-diazaspiro[4.5]decane-2,4-dione], the IC50 in assay [1] was 27.3 ± 3.8 µM; in assay [5], 9.9 ± 2.5 µM; in assay [8] it was 53.3 ± 4.6 µM. Besides, the Ki at dopamine D2 receptor is greater than 10000 nM; in assay [7] it was 1670 ± 75 nM; at 5-HT2A receptor (5-HT2A receptors, previous studies, read-out: Ki (5-HT2A) of earlier hydantoin leads), 50 nM. Further, the “fold higher affinity for 5-HT2A compared to compound 3” value on human 5-HT2A receptor [6] was “over 25 fold”. Besides, in assay [4], the “pKB ± SEM a” value is 7.665 ± 0.03^a.
As for `O=C1NC2(CCC(c3ccccc3)CC2)C(=O)N1CCCN1CCN(c2cccc(Cl)c2)CC1` (stereo not shown) [Compound 14, 3-(3-(4-(3-chlorophenyl)piperazin-1-yl)propyl)-8-phenyl-1,3-diazaspiro[4.5]decane-2,4-dione], the IC50 in assay [5] was found to be 93.8 ± 9.4 µM; in assay [8] it was 75.8 ± 16.6 µM. The inhibition constant (Ki) is greater than 10000 nM at dopamine D2 receptor; 5210 ± 268 nM in assay [7]; 56 ± 7 nM at 5-HT2A receptor (Table S1, ref Czopek et al., Acta Pol. Pharm. 73 (2016) 1545–1554, read-out: Ki ± SEM [nM] 5-HT2A); 24 ± 2.5 nM on 5-HT2A receptor (serotonin 5-HT2A receptors, already published and re-printed for comparison, read-out: Ki [nM] ± SEM). Moreover, in assay [4], the “pKB ± SEM a” value is listed as 7.110 ± 0.05^a.
